Experimental data taken from patent publication US20190192458A1, “THERAPEUTIC/PROPHYLACTIC AGENT FOR GRAFT-VERSUS-HOST DISEASE, FIBROCYTE INVASION INHIBITOR, AND INHIBITOR AGAINST TEAR REDUCTION AND REDUCTION IN GOBLET CELLS” (KEIO UNIVERSITY, priority 2016, published 2019).

Key:
cGVHD target organs = assay: Histological observation of cGVHD target organs (HE, Mallory, CD45 immunostaining, electron microscopy, PAS); format: in vivo, mouse
Procedure: Bone marrow transplantation was performed as described in the above section “Bone marrow transplantation,” and the resulting allogeneic bone marrow transplantation recipient mice were divided into two groups. One group was treated with intraperitoneal injection of PBA (10 mg/kg) (Aldrich) while the other was treated with intraperitoneal injection of a solvent vehicle⋅phosphate buffered saline (PBS) (pH 7.4). The allogeneic bone marrow transplantation recipients received once-daily administration of PBA or the solvent vehicle from Day 10 to Day 27 after bone marrow transplantation. They were sacrificed on Day 28 after bone marrow transplantation.
cGVHD-affected organs (exorbital lacrimal gland, proximal portion of the small intestine, dorsal skin, liver, salivary gland, lung, large intestine, and eyes) were analyzed herein.
The exorbital lacrimal gland, the proximal part of the small intestine, dorsal skin, the liver, the salivary gland, the lung, the large intestine, and the eyes were collected from transplant recipients at 3 or 4 weeks after bone marrow transplantation. Subsequently, these samples were fixed with 10% neutral buffered formalin, and then each embedded in paraffin. The resulting paraffin blocks were each cut into 7-μm thick sections, and then stained with • (1) hematoxylin and eosin; • (2) Malory trichrome staining (Hopwood J, Fixation and fixtative. In: Bancroft J D, Stevens A, eds., Theory and Practice of Histological Techniques, 4th ed, Edinburgh: Churchill-Livingstone, 1996:23-46; Anderson G, Gordon K, Tissue processing, microtomy and paraffin sections. In: Bancroft J D, Stevens A, eds. T. Theory and Practice of Histological Techniques, 4th ed, Edinburgh: Churchill-Livingstone, 1996:47-68); and • (3) antibody.
For immunohistochemical assay, paraffin was first removed, and antigens were then collected by either one of the following two antigen collecting methods. • (A) For staining sections with CD45 antibody (30-F11, BD Pharmingen), the sections were immersed in an antigen retrieval solution (Target Retrieval Solution; Dako), and then boiled for 10 minutes in a microwave oven. • (B) For multistaining with CD68 (FA-11, Abd Serotec) and CHOP (F-168, Santa Cruz Biotechnology, Inc.), sections were washed with an antigen retrieval solution (HistoVT One; Nacalai Tesque, Inc.), and then heated in a water bath at 90° C. for 40 minutes. Next, the sections were blocked with 10% normal goat blood serum, and antigens in the tissue sections were then allowed to react with the primary antibodies at 4° C. overnight. Subsequently, the sections were treated with fluorophore-labelled secondary antibodies at room temperature (for example, 1 to 30° C.) for 45 minutes, and then mounted with an anti-fading mounting medium (Fluorescent Mounting Medium; Dako).
Fluorescence images were captured under an LSM confocal microscope (Carl Zeiss). For counting CD45^+ cells, 5 randomly selected regions per section were photographed at a magnification of ×200, and the number of CD45^+ cells in each image was then determined. As secondary antibodies, used were goat anti-mouse IgG (H+L) secondary antibody conjugated with Alexa Fluor 488 (Molecular Probes) and goat anti-rat IgG (H+L) secondary antibody conjugated with Alexa Fluor 568 (Molecular Probes). For isotype controls, rat IgG2b, κ (eB149/10H5, eBioscience, Inc.), rat IgG2a (54447, R&D Systems, Inc.), and rabbit IgG (Cell Signaling Technology, Inc.) were used for CD45, CD68, and CHOP, respectively.
Transmission electron microscopy was performed in accordance with a standard protocol. Tissues were collected from a mouse lacrimal gland and small intestine, and immediately fixed with 2.5% glutaraldehyde in 0.1 M phosphate buffer (pH 7.4) at 4° C. for 4 hours, and then washed 3 times with 0.1 M phosphate buffer. Subsequently, the samples were fixed again with 2% osmium tetroxide, and dehydrated with a gradient series of ethanol and 100% propylene oxide, and then embedded in epoxy resin. […]

CTGF = assay: Immunoblot analysis of fibrosis marker CTGF in organs; format: in vivo, mouse; conditions: PBA-treated vs vehicle-treated organs, n=4, P<0.05, FIG. 5B, 5C
Procedure: Bone marrow transplantation was performed as described in the above section “Bone marrow transplantation,” and the resulting allogeneic bone marrow transplantation recipient mice were divided into two groups. One group was treated with intraperitoneal injection of PBA (10 mg/kg) (Aldrich) while the other was treated with intraperitoneal injection of a solvent vehicle⋅phosphate buffered saline (PBS) (pH 7.4). The allogeneic bone marrow transplantation recipients received once-daily administration of PBA or the solvent vehicle from Day 10 to Day 27 after bone marrow transplantation. They were sacrificed on Day 28 after bone marrow transplantation. […]
Proteins of interest were visualized by either one of the following two methods. (1) A target protein was colorimetrically detected using a BCIP/NBT substrate (Promega). […]
The intensity of the resulting protein band was analyzed using image processing software ImageJ. […]
With regard to the secondary antibody, (1) either AP-conjugated anti-mouse IgG antibody (Promega) or AP-conjugated anti-rabbit IgG antibody (Promega) was used when protein bands were chromogenically visualized; (2) HRP-conjugated anti-mouse antibody (Thermo Fisher Scientific) or HRP-conjugated anti-rabbit antibody (Thermo Fisher Scientific) was used when target proteins were detected by ECL.

[1] = PBA-treated vs vehicle-treated eye, FIG. 4-1A

O=C(O)CCCc1ccccc1 [PBA, 4-phenyl-n-butyric acid]
electron microscopy: hypertrophied endoplasmic reticula, cell fragments, damaged mitochondria, destroyed small villi, damaged adjacent tissues (cGVHD target organs; PBA-treated lacrimal gland and small intestine vs vehicle-treated, FIG. 4-2D): not observed | goblet cells in conjunctiva epithelium (PAS staining) (cGVHD target organs; PBA-treated vs vehicle-injected eye, n=5, P<0.001, FIG. 4-2F, 4-2G): more goblet cells | goblet cells in small intestine (PAS staining) (cGVHD target organs; PBA-treated vs vehicle-injected small intestine, n=3, P<0.001, FIG. 4-2F, 4-2G): more goblet cells | conjunctiva epithelium thinning and damage (HE staining) (cGVHD target organs; [1]): thinning and damage were observed in the vehicle-treated conjunctiva epithelium in contrast with the PBA-treated conjunctiva epithelium | meibomian gland (HE staining) (cGVHD target organs; [1]): the meibomian gland of the vehicle-treated eye was decreased and contracted as compared with the PBA-treated meibomian gland | infiltration of inflammatory cells (HE staining) (cGVHD target organs; PBA-treated vs vehicle-treated organs, FIG. 4-1A): inhibited | cGVHD-induced systemic fibrosis (Mallory staining) (cGVHD target organs; PBA-treated vs vehicle-treated organs, FIG. 4-1C): substantially inhibited | numbers of inflammatory cells (CD45+ cells) (cGVHD target organs; PBA-treated vs vehicle-treated organs, immunostaining and counting, n=3, FIG. 4-2E): considerably smaller | skin thickness, fat tissues, density of collagen bundles (HE staining) (cGVHD target organs; PBA-treated vs vehicle-treated skin, FIG. 4-1A): the vehicle-treated skin became thickened, lost fat tissues, and increased the density of collagen bundles in contrast with the PBA-treated skin | intestinal villi of small and large intestines (HE staining) (cGVHD target organs; PBA-treated vs vehicle-treated small and large intestines, FIG. 4-1A): not impaired | structures of the intestinal and conjunctival mucous membranes (PAS staining) (cGVHD target organs; after systemic injection of PBA): remained intact | CTGF expression in organs (CTGF): overexpressed in the vehicle-treated organs, but not in the PBA-treated organs
